Reference: ChEMBL document CHEMBL4028858, “Structural Biology-Inspired Discovery of Novel KRAS-PDEδ Inhibitors” (J Med Chem, 2017)
Values after ≈ are worked out from the molar mass of the structure shown. Blank lines part the entries; values can stand above or below the compound they belong to. Active and inactive are the calls of the source. No cut-off for these calls is given here.

What was measured:
CAPAN-1 [1] = assay: Induction of apoptosis in KRAS-dependent human Capan1 cells incubated for 48 hrs by Annexin-V FITC/propidium iodide staining-based flow cytometry; format: functional, cell-based
CAPAN-1 [2] = assay: Induction of apoptosis in KRAS-dependent human Capan1 cells at 25 uM incubated for 48 hrs by Annexin-V FITC/propidium iodide staining-based flow cytometry relative to control; format: functional
CAPAN-1 [3] = assay: Antiproliferative activity against KRAS-dependent human Capan1 cells after 48 hrs by CCK8 assay
[4] = Aqueous solubility of the compound at 5 mg/ml measured after 24 hrs by HPLC method; format: physicochemical; conditions: water (aqueous)
[5] = target: T1, Retinal rod rhodopsin-sensitive cGMP 3',5'-cyclic phosphodiesterase subunit delta (Homo sapiens, UniProt O43924); conditions: 1 mM
Description: Binding affinity to PDEdelta (unknown origin) assessed as change in melting temperature at 1 mM by circular dichroism spectroscopy

[6] = target: T1, Retinal rod rhodopsin-sensitive cGMP 3',5'-cyclic phosphodiesterase subunit delta
Description: Inhibition of Atrovastatin-PEG3-FITC binding to PDEdelta (unknown origin) incubated for 60 mins by fluorescence anisotropy assay

CAPAN-1 [7] = assay: Potency index, ratio of deltazinone IC50 to test compound IC50 for KRAS-dependent human Capan1 cells; format: functional
[8] = target: T1, Retinal rod rhodopsin-sensitive cGMP 3',5'-cyclic phosphodiesterase subunit delta; conditions: 10 uM
Description: Inhibition of PDEdelta in KRAS-dependent human Capan1 cells assessed as downregulation of EGF-induced ERK phosphorylation at Thr202/Thr204 at 10 uM incubated for >5 hrs by Western blot method

CAPAN-1 [9] = assay: Downregulation of PDEdelta protein expression in KRAS-dependent human Capan1 cells at 10 uM incubated for 2 hrs by immunofluorescence staining-based method; format: functional, cell-based
[10] = target: T1, Retinal rod rhodopsin-sensitive cGMP 3',5'-cyclic phosphodiesterase subunit delta; conditions: 10 uM; remark: listed apart in the source
Description: Inhibition of PDEdelta in KRAS-dependent human Capan1 cells assessed as increase in endogenous RAS distribution to endomembranes at 10 uM incubated for 2 hrs by immunofluorescence staining based method

[11] = target: T1, Retinal rod rhodopsin-sensitive cGMP 3',5'-cyclic phosphodiesterase subunit delta; conditions: 10 uM; remark: listed apart in the source
Description: Inhibition of PDEdelta in KRAS-dependent human Capan1 cells assessed as downregulation of EGF-induced AKT phosphorylation at Ser473 at 10 uM incubated for >5 hrs by Western blot method

[12] = target: RAC-alpha serine/threonine-protein kinase (Homo sapiens) (UniProt P31749); assay: […] of EGF-induced AKT phosphorylation at Ser473 in human Capan1 cells at 25 uM after 1 hr by Western blot method; format: cell-based
Homo sapiens = species on record: Homo sapiens; assay: Effect on EGF-induced ERK phosphorylation at Thr202/Tyr204 in human Capan1 cells at 25 uM after 1 hr by Western blot method
CAPAN-1 [13] = assay: Induction of apoptosis in KRAS-dependent human Capan1 cells at 10 uM incubated for 48 hrs by Annexin-V FITC/propidium iodide staining-based flow cytometry relative to control; format: functional
CAPAN-1 [14] = assay: Antiproliferative activity against KRAS-dependent human Capan1 cells at 100 uM after 48 hrs by CCK8 assay relative to control; format: functional
CAPAN-1 [15] = assay: Downregulation of PDEdelta protein expression in KRAS-dependent human Capan1 cells at 25 uM incubated for 2 hrs by immunofluorescence staining-based method; format: functional, cell-based
CAPAN-1 [16] = assay: Induction of apoptosis in KRAS-dependent human Capan1 cells at 50 uM incubated for 48 hrs by Annexin-V FITC/propidium iodide staining-based flow cytometry relative to control; format: functional

T1 sequence (O43924 whole entry): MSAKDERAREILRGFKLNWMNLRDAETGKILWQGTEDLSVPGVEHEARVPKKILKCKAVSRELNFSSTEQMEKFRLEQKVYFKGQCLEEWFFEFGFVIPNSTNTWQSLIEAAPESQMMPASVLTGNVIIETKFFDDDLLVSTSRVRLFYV
Chain of RAC-alpha serine/threonine-protein kinase (Homo sapiens) (P31749 whole entry): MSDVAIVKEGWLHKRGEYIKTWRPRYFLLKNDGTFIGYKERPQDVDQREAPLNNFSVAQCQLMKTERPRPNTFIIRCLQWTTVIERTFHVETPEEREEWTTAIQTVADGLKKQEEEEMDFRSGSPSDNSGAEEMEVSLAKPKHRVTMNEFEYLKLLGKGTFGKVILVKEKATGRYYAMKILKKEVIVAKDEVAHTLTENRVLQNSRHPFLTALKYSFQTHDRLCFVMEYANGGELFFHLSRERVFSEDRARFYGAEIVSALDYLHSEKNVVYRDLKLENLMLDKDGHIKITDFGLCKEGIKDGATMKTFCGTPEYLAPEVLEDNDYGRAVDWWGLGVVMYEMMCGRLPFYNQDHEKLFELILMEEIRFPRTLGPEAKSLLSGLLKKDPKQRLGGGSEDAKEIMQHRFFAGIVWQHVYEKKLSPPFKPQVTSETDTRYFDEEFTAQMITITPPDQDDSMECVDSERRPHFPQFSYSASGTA

Structure (SMILES): O=C1c2ccccc2N[C@@H](c2ccccc2F)N1c1ccccc1
ΔTm [5]: 14 °C

Structure (SMILES): Cc1ccc(-n2nc3c(=O)n(CCC(=O)N4CCC(N5C(=O)c6ccccc6NC5c5ccccc5F)CC4)nc(C)c3c2C)cc1 (stereo in doubt; 3b) [listing 1 of 2 here]
Kd [6]: 0.002 µM
Activity (CAPAN-1 [2]): 50%
IC50 (CAPAN-1 [3]; capan-1): 18.6 µM
solubility at 24 h [4]: 268 µM (≈ 170 µg/mL)

Structure (SMILES): O=C1c2cccc3cccc(c23)N1c1ccc(-c2ccccc2)cc1
solubility at 24 h [4]: 0.37 µM (≈ 0.119 µg/mL)

Structure (SMILES): Cc1ccc(-n2nc3c(=O)n(CCC(=O)N4CCC(N5C(=O)c6ccccc6NC5c5ccccc5F)CC4)nc(C)c3c2C)cc1 (stereo in doubt; (+)-3b)
Ratio IC50 (CAPAN-1 [7]): 4
Kd [6]: 0.0006 µM
IC50 (CAPAN-1 [3]; capan-1): 12.4 µM

Structure (SMILES): Cc1ccc(-n2nc3c(=O)n(CCC(=O)N4CCC(N5C(=O)c6ccccc6NC5c5ccccc5F)CC4)nc(C)c3c2C)cc1 (single isomer, unassigned; (-))
Kd [6]: 0.037 µM
IC50 (CAPAN-1 [3]; capan-1): 25.6 µM

Structure (SMILES): Cc1ccc(-n2nc3c(=O)n(CCC(=O)N4CCC(N5C(=O)c6ccccc6NC5c5ccccc5F)CC4)nc(C)c3c2C)cc1 (stereo in doubt; 3b) [listing 2 of 2 here]
inhibition [8]: Active
Activity (CAPAN-1 [9]): Active
inhibition [10]: Active
Activity (CAPAN-1 [1]): Dose-dependent effect
inhibition [11]: Active

Structure (SMILES): Cc1ccc(-n2nc3c(=O)n(CCCC(=O)NCC(C)c4ccccc4)nc(C)c3c2C)cc1 (stereo not given)
Activity [12]: Active
Activity (Homo sapiens): inactive
Activity (CAPAN-1 [13]): 10%
IC50 (CAPAN-1 [3]; Homo sapiens, CAPAN-1, 48 h): 56.9 µM

Structure (SMILES): O=C1c2ccccc2N[C@H](c2ccccc2F)N1c1ccccc1
ΔTm [5]: 5.75 °C

Structure (SMILES): O=C1c2ccccc2NC(c2ccccc2F)N1c1ccccc1 (racemic)
ΔTm [5]: 12.7 °C

Structure (SMILES): O=C1c2ccccc2N[C@@H](c2ccccc2F)N1CCN1CCC(N2C(=O)c3ccccc3N[C@H]2c2ccccc2F)CC1
Activity (CAPAN-1 [15]): Active
Activity (CAPAN-1 [16]): 39.3%
Activity (CAPAN-1 [2]): 23.6%

Now from value to compound, other results behind:

solubility at 24 h [4]: 403 µM (≈ 250 µg/mL)
Structure (SMILES): Cc1ccc(-n2nc3c(=O)n(CCCN4CCC(N5C(=O)c6ccccc6NC5c5ccccc5F)CC4)nc(C)c3c2C)cc1 (stereo not given)
Activity (CAPAN-1 [1]): Dose-dependent effect
Activity (CAPAN-1 [2]): 50%
IC50 (CAPAN-1 [3]; Homo sapiens, CAPAN-1, 48 h): 27.6 µM

solubility at 24 h [4]: 8.9 µM (≈ 4.92 µg/mL)
Structure (SMILES): O=C1c2ccccc2NC(c2ccccc2F)N1CCCCCN1C(=O)c2ccccc2NC1c1ccccc1F (stereo not given)

solubility at 24 h [4]: 30.9 µM (≈ 17.9 µg/mL)
Structure (SMILES): O=C1c2ccccc2NC(c2ccccc2F)N1CCCCCCCN1C(=O)c2ccccc2NC1c1ccccc1F (stereo not given)

solubility at 24 h [4]: 14 µM (≈ 7.93 µg/mL)
Structure (SMILES): O=C1c2ccccc2NC(c2ccccc2F)N1CCCCCCN1C(=O)c2ccccc2NC1c1ccccc1F (stereo not given)

solubility at 24 h [4]: 3.2 µM (≈ 1.93 µg/mL)
Structure (SMILES): O=C1c2ccccc2NC(c2ccccc2F)N1CCOc1ccc(N2C(=O)c3ccccc3NC2c2ccccc2F)cc1 (stereo not given)

solubility at 24 h [4]: 70.6 µM (≈ 41.9 µg/mL)
Structure (SMILES): O=C1c2ccccc2NC(c2ccccc2F)N1CCN1CCC(N2C(=O)c3ccccc3NC2c2ccccc2F)CC1 (stereo not given)
Activity (CAPAN-1 [14]): 48.9%
